Like-named read-outs stand apart in the source and are kept apart here.
Tests used:
[1] = test system: spontaneously beating right atrium preparations; assay: chronotropic effect on spontaneously beating right atria from reserpinized guinea-pigs; design: species or system guinea-pig
Experimental: Experiments were carried out on spontaneously beating right atrium preparations taken from the hearts of guinea-pigs of both sexes, weighing 300 to 400 g.
Twenty hrs before sacrifice the animals were injected intramuscularly with reserpine dissolved in 20% ascorbic acid in 2 doses of 2 mg/kg each at 24 hrs distance. An equal number of animals received the reserpine solvent only and were kept as controls.
The preparations were suspended in 10 ml vessels containing Krebs-Henseleitsolution aerated with […] and maintained at a temperature of 35° C.
The right atria were fixed to the vessel base by one end and connected to a transducer of a semiisometric microdynanometer (Basile) by the other end.
Heart rate was recorded directly from the tracing.
All the preparations were subjected to a reset traction of 0.6-0.8 g and allowed to stabilize for 1 hr before starting experiments.
The substances were placed in the vessel in cumulative concentrations. Each concentration was increased by three times as compared with the previous one and a 10 min. interspace was left between concentrations.
The control preparations were made by replacing in the vessel the only solvent (H2 O) in the same volumes as for the drug solutions. The effect excerted by the drug and the solvent on atrial rate was evaluated as per-cent variation as compared with baseline values. The significance of the differences between treated and control animals was assessed by Dunnett's test.
***In order to be able to compare the effect of combined doses of the
enantiomers with those of equal doses of the single enantiomers racemic
moprolol was used in concentration double with respect to the single

[2] = test system: adrenergic beta-receptors; assay: Median effective Dose (ED50) in the dog; format: in vivo
Description: The data given in Table I evidence similar toxicity of the three different compounds.
In this regard the following Table II gives the respective data for the three compounds (±); (-); (+).

[3] = Lethal Dose50 (LD50) in the mouse; format: in vivo; details: mouse, in vivo, in the mouse
Description: (§1) In this regard the following Table I reports the LD50 of the single isomers and of the racemic product.

[4] = test system: adrenergic beta-receptors; assay: inhibition of hemodynamic effects of isoproterenol (beta-receptor stimulation) in anesthetized dogs; format: in vivo, dog; details: isoproterenol 0.25 μg/Kg/minute i.v.; for beta-blocking activity (in words): anesthetized dogs, duodenal administration
Description: In order better to clarify the advantages connected with the use of pharmaceutical compositions according to the present invention, the attached drawings include three diagrams relating to certain experiments conducted in anesthetized dogs. These diagrams concern the inhibition by recemic moprolol, it laevorotatory optical isomer and its dextro-rotatory optical isomer, of certain homodynamic effects due to stimulation of the adrenergic beta-receptors following on intravenous infusion of isoproterenol at a dose of 0.25 μg/Kg/minute.
The curves therein reported refer to the means of the results of three tests for each substance.

[5] = test system: mouse; assay: Lethal Dose50 (LD50) in the mouse; format: in vivo
Description: as §1

[6] = reserpinized guinea-pig right atrium
[7] = listed as laevorotatory moprolol
[8] = Cavia porcellus, read-out: Chronotropic effect (% variation)

COc1ccccc1OCC(O)CNC(C)C (racemic) [Moprolol (±), 1-(o-methoxy-phenoxy)-3-isopropyl-amino-propane-2-ol]
cardiac action (in words) [1]: cardiac depressant action
activation at 0.01 µM ([1]; Cavia porcellus, column 1 × 10^-8, racemate used in double concentration vs single enantiomers, read-out: Chronotropic effect (% variation)): 0%
Median effective Dose (ED50) [2]: 0.150 mg/kg weight animal
LD50 [3]: 712 mg/kg

CC(C)NCC(O)COc1cccc2ccccc12 (single isomer, unassigned) [Moprolol 1-propanolol]
atr. block (preparations blocked / total) ([1]; 1 × 10^-4 M): 4/4
Chronotropic effect (% variation) ([1]; 1 × 10^-4 M, vs baseline, mean ± S.E.): atr. block
activation at 10 µM ([1]; Cavia porcellus, 1 × 10^-5 M, vs baseline, mean ± S.E., read-out: Chronotropic effect (% variation)): -21.5%
activation at 1 µM ([1]; Cavia porcellus, 1 × 10^-6 M, vs baseline, mean ± S.E., read-out: Chronotropic effect (% variation)): -5.7%
activation at 0.1 µM ([1]; Cavia porcellus, 1 × 10^-7 M, vs baseline, mean ± S.E., read-out: Chronotropic effect (% variation)): -2%
activation at 0.01 µM ([1]; Cavia porcellus, 1 × 10^-8 M, vs baseline, mean ± S.E., read-out: Chronotropic effect (% variation)): -0.5%
activation at 30 µM ([1]; Cavia porcellus, 3 × 10^-5 M, vs baseline, mean ± S.E., read-out: Chronotropic effect (% variation)): -37%
activation at 3 µM ([1]; Cavia porcellus, 3 × 10^-6 M, vs baseline, mean ± S.E., read-out: Chronotropic effect (% variation)): -11.2%
activation at 0.3 µM ([1]; Cavia porcellus, 3 × 10^-7 M, vs baseline, mean ± S.E., read-out: Chronotropic effect (% variation)): -3.5%
activation at 0.03 µM ([1]; Cavia porcellus, 3 × 10^-8 M, vs baseline, mean ± S.E., read-out: Chronotropic effect (% variation)): -0.75%
minimal effective concentration ([1]; Cavia porcellus, reserpinized guinea-pig right atrium, read-out: concentration from which depressant effect on atrial rate starts): ≥ 1 µM
effect on atrial rate (in words) ([1]; reserpinized guinea-pig right atrium, listed as Laevorotatory isomer of propanolol): no stimulant effect but a depressant effect
effect on atrial rate (in words) ([1]; reserpinized guinea-pig right atrium, listed as laevorotatory isomer of propanolol): more marked than that evoked by laevorotatory isomer, dextro-rotatory isomer and racemic moprolol

COc1ccccc1OCC(O)CNC(C)C (single isomer, unassigned) [Moprolol (+)]
Chronotropic effect (% variation) ([1]; 1 × 10^-4 M, vs baseline, mean ± S.E., listed as d-moprolol): -37.5%
Chronotropic effect (% variation) ([1]; 1 × 10^-5 M, vs baseline, mean ± S.E., listed as d-moprolol): -7.25%
Chronotropic effect (% variation) ([1]; 1 × 10^-6 M, vs baseline, mean ± S.E., listed as d-moprolol): -2%
Chronotropic effect (% variation) ([1]; 1 × 10^-7 M, vs baseline, mean ± S.E., listed as d-moprolol): -2.7%
Chronotropic effect (% variation) ([1]; 1 × 10^-8 M, vs baseline, mean ± S.E., listed as d-moprolol): -1.25%
Chronotropic effect (% variation) ([1]; 3 × 10^-5 M, vs baseline, mean ± S.E., listed as d-moprolol): -14.7%
Chronotropic effect (% variation) ([1]; 3 × 10^-6 M, vs baseline, mean ± S.E., listed as d-moprolol): -6%
Chronotropic effect (% variation) ([1]; 3 × 10^-7 M, vs baseline, mean ± S.E., listed as d-moprolol): -2.7%
Chronotropic effect (% variation) ([1]; 3 × 10^-8 M, vs baseline, mean ± S.E., listed as d-moprolol): -4%
effect on atrial rate (in words) ([1]; reserpinized guinea-pig right atrium, listed as Dextro-rotatory isomer of moprolol): no stimulant effect in a range of concentrations which have proved to be active for laevorotatory isomer of moprolol. On the contrary, they give rise to a depressant effect
beta-blocking activity (in words) ([4]; listed as dextro-rotatory isomer): practically nil
beta-blocking activity (in words) ([4]; listed as dextrorotatory optical isomer): almost complete lack of beta-blocking activity
Median effective Dose (ED50) [2]: nil
activity at effective dose (in words) [2]: without any activity whatsoever
toxicity (in words) ([5]; LD50, mouse): same toxicity as the laevorotatory isomer and the racemic form
Lethal Dose50 (LD50) ([5]; in the mouse): 720 mg/kg weight animal

COc1ccccc1OCC(O)CNC(C)C (single isomer, unassigned) [Moprolol (-)]
cardiac action (in words) [1]: cardiac stimulant action
Chronotropic effect (% variation) ([1]; 1 × 10^-4 M, vs baseline, mean ± S.E., listed as 1-moprolol): -10.8%
Chronotropic effect (% variation) ([1]; 1 × 10^-5 M, vs baseline, mean ± S.E., listed as 1-moprolol): +4%
Chronotropic effect (% variation) ([1]; 1 × 10^-6 M, vs baseline, mean ± S.E., listed as 1-moprolol): +8.8%
Chronotropic effect (% variation) ([1]; 1 × 10^-7 M, vs baseline, mean ± S.E., listed as 1-moprolol): +10.4%
Chronotropic effect (% variation) ([1]; 1 × 10^-8 M, vs baseline, mean ± S.E., listed as 1-moprolol): +8.2%
Chronotropic effect (% variation) ([1]; 3 × 10^-5 M, vs baseline, mean ± S.E., listed as 1-moprolol): +0.2%
Chronotropic effect (% variation) ([1]; 3 × 10^-6 M, vs baseline, mean ± S.E., listed as 1-moprolol): +7.8%
Chronotropic effect (% variation) ([1]; 3 × 10^-7 M, vs baseline, mean ± S.E., listed as 1-moprolol): +10.4%
Chronotropic effect (% variation) ([1]; 3 × 10^-8 M, vs baseline, mean ± S.E., listed as 1-moprolol): +11.4%
concentration range of stimulant effect on atrial rate [1, 6]: 10 to 1000 nM
effect on atrial rate (in words) ([1]; reserpinized guinea-pig right atrium, listed as Laevorotatory isomer of moprolol): causes a stimulant effect on atrial rate
significance (P) of correlation coefficient of dose-dependent inhibition ([4]; 0.25, 0.0625 and 0.125 mg/kg): < 0.01
beta-blocking activity (in words) ([4]; listed as laevoratatory isomer of moprolol): exactly double that of racemic moprolol
beta-blocking activity (in words) [4, 7]: particularly evident for the laevorotatory form in a dose-dependent manner
Median effective Dose (ED50) [2]: 0.0781 mg/kg weight animal
activity relative to the racemic form (times more active) ([2]; effective dose): 2 times
Median effective Dose (ED50) [2, 7]: 0.0781 mg/kg weight animal
LD50 [3]: 605 mg/kg

Cl.NCCc1ccc(O)cc1 [Tyramine HCl]
activation at 0.1 µM [1, 8]: 0%
activation at 0.3 µM [1, 8]: 0%
activation at 1 µM [1, 8]: 0%
activation at 3 µM [1, 8]: 0%
activation at 10 µM [1, 8]: -1 ± 1%
activation at 30 µM [1, 8]: -3%
activation at 100 µM [1, 8]: -3%
effect on atrial rate (in words) [1, 6]: devoid of positive chronotropic effect
